Active and inactive are the calls of the source. The rule behind the calls is not given here.
What was measured:
RAW264.7 [1] = assay: Antiinflammatory activity in mouse RAW264.7 cells assessed as inhibition of LPS-induced nitric oxide production after 24 hrs by Griess method; assay type: functional, cell-based; settings: RAW264.7, 24 h
THP-1 [2] = assay: Antiinflammatory activity in human THP1 cells assessed as inhibition of LPS-induced […] mRNA level at 12 to 25 uM preincubated for 1 hr followed by LPS stimulation measured after 12 hrs by qPCR method; assay type: functional, cell-based
[3] = biological target: T1, Transcription factor E3 (Homo sapiens) (UniProt P19532); assay: Inhibition of LPS-induced TFE3 nuclear translocation in human THP1 cells at 12 to 25 uM preincubated for 1 hr followed by LPS stimulation measured after 12 hrs by Western blot method; assay type: cell-based
T1 sequence (whole entry): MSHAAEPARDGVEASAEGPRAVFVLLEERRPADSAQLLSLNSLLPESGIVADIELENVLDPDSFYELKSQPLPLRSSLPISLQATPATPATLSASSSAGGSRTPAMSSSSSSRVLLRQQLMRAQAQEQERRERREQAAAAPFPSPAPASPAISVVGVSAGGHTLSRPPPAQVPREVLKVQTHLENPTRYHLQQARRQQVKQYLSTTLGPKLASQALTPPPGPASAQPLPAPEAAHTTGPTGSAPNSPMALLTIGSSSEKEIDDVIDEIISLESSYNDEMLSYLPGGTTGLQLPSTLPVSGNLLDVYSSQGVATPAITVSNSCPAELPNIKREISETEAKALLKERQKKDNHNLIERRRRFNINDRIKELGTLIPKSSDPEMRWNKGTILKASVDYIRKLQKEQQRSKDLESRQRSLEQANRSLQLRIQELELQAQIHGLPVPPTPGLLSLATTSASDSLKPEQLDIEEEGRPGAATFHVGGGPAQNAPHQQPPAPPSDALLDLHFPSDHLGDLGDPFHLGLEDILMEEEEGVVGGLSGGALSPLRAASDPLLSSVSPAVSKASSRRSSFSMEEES

RAW264.7 [4] = assay: Cytotoxicity against mouse RAW264.7 cells assessed as reduction in cell viability by MTT assay; assay type: cell-based
THP-1 [5] = assay: Antiinflammatory activity in human THP1 cells assessed as inhibition of LPS-induced IL-alpha mRNA level preincubated for 1 hr followed by LPS stimulation measured after 12 hrs by qPCR method; assay type: functional, cell-based
THP-1 [6] = assay: Antiinflammatory activity in human THP1 cells assessed as inhibition of LPS-induced IL-beta mRNA level preincubated for 1 hr followed by LPS stimulation measured after 12 hrs by qPCR method; assay type: functional, cell-based
THP-1 [7] = assay: Antiinflammatory activity in human THP1 cells assessed as inhibition of LPS-induced IL-6 mRNA level preincubated for 1 hr followed by LPS stimulation measured after 12 hrs by qPCR method; assay type: functional, cell-based
THP-1 [8] = assay: Antiinflammatory activity in human THP1 cells assessed as inhibition of LPS-induced TNF-alpha mRNA level preincubated for 1 hr followed by LPS stimulation measured after 12 hrs by qPCR method; assay type: functional, cell-based
THP-1 [9] = assay: Antiinflammatory activity in human THP1 cells assessed as inhibition of LPS-induced […] mRNA level at 50 to 100 uM preincubated for 1 hr followed by LPS stimulation measured after 12 hrs by qPCR method; assay type: functional, cell-based
THP-1 [10] = assay: Antiinflammatory activity in human THP1 cells assessed as inhibition of LPS-induced COX-2 protein level at 50 to 100 uM preincubated for 1 hr followed by LPS stimulation measured after 12 hrs by Western blot method; assay type: functional, cell-based
[11] = biological target: Transcription factor p65 (Homo sapiens) (UniProt Q04206); assay: Inhibition of LPS-induced NFkB p65 phosphorylation in cytoplasm of human THP1 cells preincubated for 1 hr followed by LPS stimulation measured after 12 hrs by Western blot method
Transcription factor p65 (Homo sapiens), sequence (Q04206 whole entry, the tested form may be a part): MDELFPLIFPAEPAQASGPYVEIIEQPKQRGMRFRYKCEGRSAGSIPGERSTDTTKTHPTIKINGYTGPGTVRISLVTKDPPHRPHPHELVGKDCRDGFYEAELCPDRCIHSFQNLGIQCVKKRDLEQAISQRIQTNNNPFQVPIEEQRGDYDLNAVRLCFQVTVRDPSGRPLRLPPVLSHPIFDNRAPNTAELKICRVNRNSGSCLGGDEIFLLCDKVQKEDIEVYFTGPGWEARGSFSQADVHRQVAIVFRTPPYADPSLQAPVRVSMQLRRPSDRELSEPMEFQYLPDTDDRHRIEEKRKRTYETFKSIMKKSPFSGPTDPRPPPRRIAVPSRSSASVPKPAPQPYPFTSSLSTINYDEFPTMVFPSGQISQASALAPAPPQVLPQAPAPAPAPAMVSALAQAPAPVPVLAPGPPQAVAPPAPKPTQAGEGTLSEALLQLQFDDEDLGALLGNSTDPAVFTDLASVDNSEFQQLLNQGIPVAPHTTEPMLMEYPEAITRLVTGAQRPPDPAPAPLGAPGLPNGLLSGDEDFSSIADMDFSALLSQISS

[12] = biological target: Transcription factor p65 (Homo sapiens) (UniProt Q04206); assay: Inhibition of LPS-induced NFkB p65 nuclear translocation in human THP1 cells preincubated for 1 hr followed by LPS stimulation measured after 12 hrs by Western blot method; assay type: cell-based
THP-1 [13] = assay: Inhibition of LPS-induced STAT1 nuclear translocation in human THP1 cells at 50 to 100 uM preincubated for 1 hr followed by LPS stimulation measured after 12 hrs by Western blot method; assay type: functional, cell-based
THP-1 [14] = assay: Inhibition of LPS-induced STAT3 nuclear translocation in human THP1 cells at 50 to 100 uM preincubated for 1 hr followed by LPS stimulation measured after 12 hrs by Western blot method; assay type: functional, cell-based
THP-1 [15] = assay: Inhibition of LPS-induced TFEB nuclear translocation in human THP1 cells at 50 to 100 uM preincubated for 1 hr followed by LPS stimulation measured after 12 hrs by Western blot method; assay type: functional, cell-based
[16] = biological target: T1, Transcription factor E3 (Homo sapiens); assay: Inhibition of LPS-induced TFE3 nuclear translocation in human THP1 cells at 50 to 100 uM preincubated for 1 hr followed by LPS stimulation measured after 12 hrs by Western blot method; assay type: cell-based
[17] = biological target: T1, Transcription factor E3 (Homo sapiens); assay: Inhibition of GFP-fused TFE3 (unknown origin) expressed in HEK293T cells assessed as reduction in LPS-induced TFE3 nuclear translocation at 100 uM preincubated for 1 hr followed by LPS stimulation measured after 12 hrs by DAPI staining based confocal microscopic method; assay type: cell-based
[18] = biological target: Transcription factor p65 (Homo sapiens) (UniProt Q04206); assay: Inhibition of GFP-fused NFkB p65 (unknown origin) expressed in HEK293T cells assessed as reduction in LPS-induced p65 nuclear translocation at 100 uM preincubated for 1 hr followed by LPS stimulation measured after 12 hrs by DAPI staining based confocal microscopic method; assay type: cell-based

Structure (SMILES) | IC50 (RAW264.7 [1]) [µM] | inhibition (THP-1 [2]) | inhibition [3] | IC50 (RAW264.7 [4]) [µM] | inhibition (THP-1 [5]) | inhibition (THP-1 [6]) | inhibition (THP-1 [7]) | inhibition (THP-1 [8]) | inhibition (THP-1 [9]) | inhibition (THP-1 [10]) | inhibition [11] | inhibition [12] | inhibition (THP-1 [13]) | inhibition (THP-1 [14]) | inhibition (THP-1 [15]) | inhibition [16] | inhibition [17] | inhibition [18]
O=c1cc(-c2ccc(O)c(O)c2)oc2cc(O)cc(O)c12 [LUTEOLIN] | 14.4 | Active | Active | > 50 |  |  |  |  |  |  |  |  |  |  |  |  |  | 
C/C1=C/C(=O)C/C(C)=C/C[C@]2(C)CC[C@](O)(C(C)C)[C@H]2CC1 | 34.9 |  |  | > 100 | Dose-dependent effect | Dose-dependent effect | Dose-dependent effect | Dose-dependent effect | Active | Active | Dose-dependent effect | Dose-dependent effect | inactive | inactive | inactive | Active | Active | Active
CC1=C(C)C(=O)C(CC[C@@](C)(O)CCC[C@@H](C)CCC[C@@H](C)CCCC(C)C)=C(C)C1=O | > 100 |  |  | > 100 |  |  |  |  |  |  |  |  |  |  |  |  |  | 
